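Growth conditions: 96-well plates. Treatment: test compound, 48 hours, 5 concentrations. Analysis: linear interpolation between bracketing concentrations; unreached endpoints set to highest concentration. Abbreviation: GI50, concentration required for 50% inhibition of growth.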 Activity calls are given as the source filed them. Rule as the data show it: active = GI50 up to about 1.1 µM and inactive = higher.
Key:
Assay in all cases: inhibition of tumour cell growth, NCI panel, 48 h
CAKI-1 = tested on: CAKI-1
DU-145 = tested on: DU-145
HCC 2998 = tested on: HCC 2998
HL-60 = tested on: HL-60
HOP-62 = tested on: HOP-62
IGROV-1 = tested on: IGROV-1
KM12 = tested on: KM12
LOX IMVI = tested on: LOX IMVI
MDA-N = tested on: MDA-N
Malme-3M = tested on: Malme-3M
NCI-H226 = tested on: NCI-H226
NCI-H23 = tested on: NCI-H23
NCI-H460 = tested on: NCI-H460
NCI-H522 = tested on: NCI-H522
RPMI-8226 = tested on: RPMI-8226
SF-268 = tested on: SF-268
SF-539 = tested on: SF-539
SK-OV-3 = tested on: SK-OV-3
UACC-257 = tested on: UACC-257
UO-31 = tested on: UO-31

| Structure (SMILES) | GI50 (CAKI-1) | GI50 (DU-145) | GI50 (HCC 2998) | GI50 (HL-60) | GI50 (HOP-62) | GI50 (IGROV-1) | GI50 (KM12) | GI50 (LOX IMVI) | GI50 (MDA-N) | GI50 (Malme-3M) | GI50 (NCI-H226) | GI50 (NCI-H23) | GI50 (NCI-H460) | GI50 (NCI-H522) | GI50 (RPMI-8226) | GI50 (SF-268) | GI50 (SF-539) | GI50 (SK-OV-3) | GI50 (UACC-257) | GI50 (UO-31) |
| --- | --- | --- | --- | --- | --- | --- | --- | --- | --- | --- | --- | --- | --- | --- | --- | --- | --- | --- | --- | --- |
| O=c1oc2ccccc2c(Nc2ccc3c(c2)Oc2ccccc2O3)c1[N+](=O)[O-] | 54.8 µM (inactive) | 29.6 µM (inactive) | 28.1 µM (inactive) | > 100 µM (inactive) | 34.9 µM (inactive) | 19 µM (inactive) | 59.2 µM (inactive) | 36.9 µM (inactive) | 49.8 µM (inactive) | 23 µM (inactive) | 23.1 µM (inactive) | 20.3 µM (inactive) | 42.2 µM (inactive) | 24.1 µM (inactive) | 59.6 µM (inactive) | 23.7 µM (inactive) | 19.2 µM (inactive) | 19.1 µM (inactive) | 30.3 µM (inactive) | > 100 µM (inactive) |
| N#C/C(N)=C(C#N)/N=C/NCCO | > 100 µM (inactive) | > 100 µM (inactive) | > 100 µM (inactive) | > 100 µM (inactive) | > 100 µM (inactive) | > 100 µM (inactive) | > 100 µM (inactive) | > 100 µM (inactive) | > 100 µM (inactive) | > 100 µM (inactive) | > 100 µM (inactive) | > 100 µM (inactive) | > 100 µM (inactive) | > 100 µM (inactive) | > 100 µM (inactive) | > 100 µM (inactive) | > 100 µM (inactive) | > 100 µM (inactive) | > 100 µM (inactive) | > 100 µM (inactive) |
| C=C1C(=O)O[C@H]2[C@H]([C@H](C)CCCC(C)=O)O[C@H]([C@@]3(C)CCC(=O)O3)C[C@@H]12 | 18.3 µM (inactive) | 40.6 µM (inactive) | 68.1 µM (inactive) | 41.7 µM (inactive) | > 100 µM (inactive) | > 100 µM (inactive) | 98.9 µM (inactive) | 24.4 µM (inactive) | 53.1 µM (inactive) | 18.4 µM (inactive) | 31.3 µM (inactive) | 43.4 µM (inactive) | > 100 µM (inactive) | 26.4 µM (inactive) | 31.8 µM (inactive) | 0.0316 µM (active) | 59.8 µM (inactive) | > 100 µM (inactive) | 77.1 µM (inactive) | > 100 µM (inactive) |
| COC1CC(N)C(O)C(C)O1 (stereo not given) | > 100 µM (inactive) | > 100 µM (inactive) | > 100 µM (inactive) | > 100 µM (inactive) | > 100 µM (inactive) | > 100 µM (inactive) | > 100 µM (inactive) | > 100 µM (inactive) | > 100 µM (inactive) | > 100 µM (inactive) | > 100 µM (inactive) | > 100 µM (inactive) | > 100 µM (inactive) | > 100 µM (inactive) | > 100 µM (inactive) | > 100 µM (inactive) | > 100 µM (inactive) | > 100 µM (inactive) | > 100 µM (inactive) | > 100 µM (inactive) |
| COC(=O)c1ccc(O)c2nc3c(C=O)c(O)cc(O)c3nc12 [LOMOFUNGIN] | 0.345 µM (active) | 0.685 µM (active) | 4.93 µM (inactive) | 0.293 µM (active) | 1.36 µM (inactive) | 0.206 µM (active) | 1.3 µM (inactive) | 0.269 µM (active) | 1.67 µM (inactive) | 2.07 µM (inactive) | 0.542 µM (active) | 0.139 µM (active) | 0.413 µM (active) | 0.755 µM (active) | 0.811 µM (active) | 0.428 µM (active) | 0.0585 µM (active) | 2.96 µM (inactive) | 0.782 µM (active) | 0.225 µM (active) |

— ChEMBL document CHEMBL1201862, “PubChem BioAssay data set” (2004)
